Laboratory results published in EP2518139A1, “Use of indirubin derivatives for producing pluripotent stem cells” (Universitätsklinikum Jena, priority 2011, dated 2012).
Residues, ends and D or L forms follow the SMILES beside them. *: point of attachment. Cbz = O=C(OCc1ccccc1)*

Experiments:
Smad1/5/8 = experiment: Immunoblot of p-Smad1/5/8 and pan-Smad1/5/8 in HeLa cells; format: cell-based, human
[1] = test system: BMP- and TGFß-relative R-Smads; experiment: Immunoblot of BMP- and TGFß-relative R-Smads in HeLa cells (TGFß or FCS stimulation); format: cell-based, human; details: 24h, E738 (1µM), Bio (5µM), DM (1µM), Repsox (10µM); for P- and pan-Smads (R-Smads): TGFß (20ng/mL)
p38 = details: reported by Zhu et al.; cited from earlier work
[2] = test system: mono-, di- and poly-ubiquitins; experiment: Immunoblot of ubiquitins in HeLa cells; format: cell-based, human; details: BMP-stimulated HeLa, 24h; MG132 5µM, E738 (1µM)
Method: Western blot:: Cell extracts were homogenized in Urea-Lysis buffer (1mM EDTA,0.5% Triton X-100), 5mM NaF, 6M Urea, 1mM Na3VO4, 10µg/mL Pepstatin, 100µM PMSF and 3µg/mL Aprotinin in PBS). Enhanced chemiluminescence (ECL) Western blot analysis was performed. 20-40µg of total protein was resolved on 10% SDS-PAGE gels and immunoblotted with specific antibodies. Primary antibodies were incubated at a 1:1,000 dilution in TBS (pH 7.5) with 0.1% Tween-20 and 5% BSA/nonfat milk with gentle agitation overnight at 4°C. The proper secondary antibodies were incubated in TBS (pH 7.5) with 5% BSA/nonfat milk and 0.1 % Tween-20 at a 1:5,000 dilution for 1 h at room temperature.
Ubiquitin-proteasome degradation system is the major route to protein degradation. To identify if indirubin-induced degradation is conducted by proteasome, we utilized MG132, a general proteasome inhibitor, to characterize the role of proteasome in degradation. We found 5µM MG132 was sufficient to rescue the E738 mediated Smad1/5/8 […] 24h after treatment (Fig. 5E and 5F). […] Thus we interpreted that E738 might be able to promote degradation of polymerased ubiquintins through activating the formation of complexes with certain substrates, speculatively like Smad1/2/3/5/8, leading to accelerate the recycling of mono-ubiquitin, while MG132 blocked the degradation of these complexes and arrest such recycling. […]

[3] = BMP2 (100ng/mL), 24h, compound at 5µM

## O=C1Nc2cc(Br)ccc2/C1=C1/Nc2ccccc2/C1=N\O [BIO, 6-Bromo-indirubin-3'-oxim, reference compound]
Smad1/5/8; [3]
  level of pan Smad1/5/8: slightly decreased pan-Smad1/5/8
  phosphorylation (activation) of Smad1/5/8: clearly blocked the activation of Smad1/5/8
[1]
  P- and pan-Smads (R-Smads): attenuated effects

## C[C@@H]1C[C@@H]([C@H](O)CC2CC(=O)NC(=O)C2)C(=O)[C@@H](C)C1 [CHX, cyclohexamide, reference compound]
Smad1/5/8; BMP2, CHX (10µM), 24h
  signal of Smad1/5/8: weaker signal of Smad1/5/8
Smad1/5/8; BMP2, mixture of E738 (1µM) and CHX 10µM, 24h
  influence on the E738 induced degradation of Smad1/5/8: no influence on the degradation

## O=C1Nc2ccccc2/C1=C1/Nc2ccccc2/C1=N\O [E231, Indirubin-3'-oxim]
p38
  phosphorylation of p38: can stimulate the phosphorylation of p38
Smad1/5/8; BMP2 (100ng/mL), 24h, compound at 1µM
  p-Smad1/5/8 at C-termini and pan-Smad1/5/8 levels: slightly decreased
Smad1/5/8; [3]
  level of pan Smad1/5/8: induced the reduction only partly
  phosphorylation (activation) of Smad1/5/8: strongly blocked the phosphorylation

## [Cl-].[Li+] [LiCl, reference compound]
Smad1/5/8; BMP, LiCl (30mM), 24h
  BMP activated Smad1/5/8 and level of pan Smad1/5/8: can attenuate BMP activated Smad1/5/8, but not change the level of pan Smad1/5/8

## CC(C)C[C@@H](C=O)NC(=O)[C@H](CC(C)C)NC(=O)[C@H](CC(C)C)NC(=O)OCc1ccccc1 [MG132, reference compound] (Cbz-Leu-Leu-Leu-aldehyde)
Smad1/5/8; BMP, 24h after treatment
  concentration sufficient to rescue the E738 mediated Smad1/5/8 ubiquitination: 5 µM
Smad1/5/8; BMP, MG (5µM) with/without E738
  p-Smad1/5/8: accumulation of p-Smad1/5/8 was observed
[2]
  mono-, di- and poly-ubiquitins: significantly stabilized mono-, di- and poly-ubiquitins

## Cc1cccc(-c2[nH]ncc2-c2ccc3ncccc3n2)n1 [Repsox]
[1]; FCS 10%
  activation of both types of R-Smads: only partly
[1]
  P- and pan-Smads (R-Smads): inhibited TGFß-mediated activation of Smad3, but not Smad1/5/8 or total R-Smads protein

## C[S+]([O-])c1ccc(-c2nc(-c3ccncc3)c(-c3ccc(F)cc3)[nH]2)cc1 (stereo not shown) [SB203580, reference compound]
Smad1/5/8; BMP, MAPK inhibitor alone or in combination with E738
  level of pan Smad1/5/8: neither alter the level of pan Smad1/5/8 alone, nor attenuate the E738-mediated degradation in combination with E738
